Here are results for five compounds from US10227347B2, “Purinyl-N-hydroxyl pyrimidine formamide derivative, preparation methods and uses thereof” (Guizhou Bailing Group Pharmaceutical CO., LTD., priority 2015, dated 2019).

Where two headings read alike, the source gives them in different places.

The target in one data set is T1, PI3Kα (Homo sapiens, UniProt P42336).
T1 construct: purchased Invitrogen PV4788
As to the kind of experiment: PI3Kα activity inhibition (Kinase-Glo). The format is biochemical. Put shortly:
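Kinase-Glo luminescence read-out of remaining ATP after PI3K reaction with PIP2 and ATP substrates in 50 mM HEPES pH 7.5, 3 mM MgCl2, 1 mM EGTA, 100 mM NaCl, 0.03% CHAPS, 2 mM DTT. Incubated at ambient temperature, 1 h for PI3Kα, 2 h for PI3Kδ. IC50 from four-parameter fit of % inhibition versus concentration.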

Data set [1] relates to acetylated histone H3 (Ac-H3) in A2780s cells. Briefly: Induction of histone H3 acetylation in A2780s cells (cytoblot). The format is cell-based. Particulars: Homo sapiens, 6 h treatment. As for the experimental part:
Specific operation: After the treatment, washing each well once with 50-100 μl of cold TBS buffer [with the composition as 20 mM Tris (trismetyl aminomethane), pH7.5] and fixing it with 100 μL of 4% pre-cooled paraformaldehyde at 4° C. for 1 h; after paraformaldehyde is washed off, adding 50 μL of pre-cooled methyl alcohol in each well and evenly spreading at 4° C. for 5 min; after methyl alcohol is washed off, washing it once with the TBS buffer containing 3% skim milk powder and adding 50 μL of antibody fluid, oscillating it slightly at 4° C. and incubating overnight. For determination of Ac—H3, the antibody fluid is prepared by diluting Ac—H3 antibody and horseradish peroxide coupled secondary antibody to a same system with the TBS buffer containing 3% skim milk powder (Ac—H3 antibody is purchased from Santa Cruz Company and diluted at a ratio of 1:100; horseradish peroxide coupled secondary antibody is purchased from Jackson Company and diluted at a ratio of 1:2000); for determination of acetylated Ac-α-tubulin, the antibody fluid is prepared by diluting Ac-α-tubulin antibody and horseradish peroxide coupled secondary antibody to a same system with the TBS buffer containing 3% skim milk powder (Ac-α-tubulin antibody is purchased from Santa Cruz Company and diluted at a ratio of 1:100; horseradish peroxide coupled secondary antibody is purchased from Jackson Company and diluted at a ratio of 1:2000).
Calculating the value of IC50 as per the formula: Y=background data+(top data−background data)/(1+10^((Log EC50−X)*rate of curve)) Where, Y refers to the activating rate (%) and X refers to the compound concentration.

The target of a further data set is T2, HDAC2 (Homo sapiens, UniProt Q92769).
T2 construct: purchased BPS Bioscience 50002
T2 sequence (Q92769 whole entry, species assumed): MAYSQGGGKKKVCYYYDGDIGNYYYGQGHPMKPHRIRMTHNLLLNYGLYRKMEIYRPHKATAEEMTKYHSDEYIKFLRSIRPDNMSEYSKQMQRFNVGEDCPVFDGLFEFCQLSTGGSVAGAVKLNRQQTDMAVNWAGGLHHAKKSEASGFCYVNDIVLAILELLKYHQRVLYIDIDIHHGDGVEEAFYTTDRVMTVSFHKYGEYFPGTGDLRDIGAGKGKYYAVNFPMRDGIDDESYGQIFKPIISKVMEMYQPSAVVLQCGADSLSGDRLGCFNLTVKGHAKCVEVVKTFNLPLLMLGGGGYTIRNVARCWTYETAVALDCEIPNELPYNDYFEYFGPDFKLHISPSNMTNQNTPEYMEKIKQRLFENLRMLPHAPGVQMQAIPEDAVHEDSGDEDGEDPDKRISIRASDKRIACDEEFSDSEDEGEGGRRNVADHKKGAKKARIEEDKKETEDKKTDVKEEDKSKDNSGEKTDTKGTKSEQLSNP
Briefly: HDAC2 enzyme inhibition (Lys-Ac-AMC). The format is biochemical. The following applies: Table 4, graded. As for the experimental part: (§1) Determining the inhibition capability of HDAC through the substrate method of fluorophore coupled acetylized peptide fragment (Lys-Ac-AMC). HDAC2-11 proteins of subtypes are purchased from BPS Bioscience Company with the Art. […] The reaction buffer system is a modified Tris buffer (pH7.0). The small molecule compounds are prepared and dissolved with 100% DMSO. […] Adding the compound into the reaction wells of the 384 well plate at the designed concentration, then adding 15 μL HDAC enzyme solution into the reaction wells (adding 15 μL blank buffer into the control well 0) for incubation under ambient temperature for 15 min; then adding 10 μL substrate solution to start reaction.
(§2) Analyzing the result data with the software GraphPad Prism and calculating the value of IC50 as per the formula: Y=background data+(top data−background data)/(1+10^((Log IC50−X)*rate of curve)). Where, Y refers to the inhibition ratio (%) and X refers to the compound concentration.

The next data set has as its target T3, HDAC4 (Homo sapiens, UniProt P56524).
T3 construct: purchased BPS Bioscience 50004
As to the kind of experiment: HDAC4 enzyme inhibition (Lys-Ac-AMC). The format is biochemical. The following applies: Table 4, graded. How it is done: as §1, §2

Another data set concerns the target T4, HDAC5 (Homo sapiens, UniProt Q9UQL6).
T4 construct: purchased BPS Bioscience 50005
Briefly: HDAC5 enzyme inhibition (Lys-Ac-AMC). The format is biochemical. Particulars: Table 4, graded. How it is done: as §1, §2

For the next data set, the target named is T5, HDAC11 (Homo sapiens, UniProt Q96DB2).
T5 construct: purchased BPS Bioscience 50011
T5 sequence (Q96DB2 1-347): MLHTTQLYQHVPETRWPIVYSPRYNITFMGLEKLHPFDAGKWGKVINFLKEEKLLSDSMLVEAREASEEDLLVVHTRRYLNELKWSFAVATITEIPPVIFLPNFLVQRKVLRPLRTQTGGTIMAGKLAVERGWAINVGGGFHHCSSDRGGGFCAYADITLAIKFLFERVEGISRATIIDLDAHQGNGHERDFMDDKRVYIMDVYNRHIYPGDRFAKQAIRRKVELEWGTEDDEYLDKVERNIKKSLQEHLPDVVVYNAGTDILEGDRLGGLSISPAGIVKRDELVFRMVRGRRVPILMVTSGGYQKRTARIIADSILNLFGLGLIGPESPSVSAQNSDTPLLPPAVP
As to the kind of experiment: HDAC11 enzyme inhibition (Lys-Ac-AMC). The format is biochemical. The following applies: Table 4, graded. How it is done:
as §1, §2

The subject of data set [2] is MV4-11 subcutaneous tumor. Particulars: 10 mg/kg i.v., once per two days, 22 days. The source says: During drug administration, measuring the weight and gross tumor volume of the mice per 2 days and keeping a record. The calculation formula is as V=π/6×A^2×B, where, where, V=gross tumor volume (mm^3), A=tumor width (mm) and B=tumor length (mm). Observing and keeping a record for the survival condition of the tested animals. After drug discontinuance, killing the mice through cervical dislocation and peeling off their tumors as per the operation specification of animal experiment. Evaluating the inhibition capability of the compounds to tumor activities by calculating the tumor inhibitory rate with the formula as: tumor inhibitory rate=(1−tumor weight of treatment group/tumor weight of control group)×100%. Analyzing and comparing the difference between each treatment group and control group with the method of t-test. The grading of significance level of difference is: ***, P<0.001; **, P<0.01; *, P<0.05; no statistical significance (ns), P>0.05.

In data set [3] the test system is MM1S cells (multiple myeloma). Briefly: Proliferation inhibition, MM1S (cck-8). The format is cell-based. Particulars: Homo sapiens, MM1.S; 96 h incubation. The source says: (§3) Calculating the value of IC50 as per the formula: Y=background data+(top data−background data)/(1+10^((Log IC50−X)*rate of curve)). Where, Y refers to the inhibition ratio (%) and X refers to the compound concentration.

The test system of data set [4] is SUDHL-4 cells (B-cell lymphoma). As to the kind of experiment: Proliferation inhibition, SUDHL-4 (cck-8). The following applies: Homo sapiens, SU-DHL-4; 96 h incubation. The format is cell-based.
Text: as §3

Setting [5] is: Table 1, graded, read-out: PI3Kα IC50.
[6] abbreviates: Table 4, graded, read-out: PI3Kα IC50.

As usually defined, the IC50 is the concentration that inhibits the measured activity by half. A word on the EC50: it is the concentration that produces a half-maximal response. High values mean a need for much substance, low ones an effect from little substance.

T4 sequence (Q9UQL6 656-1122 limits assumed): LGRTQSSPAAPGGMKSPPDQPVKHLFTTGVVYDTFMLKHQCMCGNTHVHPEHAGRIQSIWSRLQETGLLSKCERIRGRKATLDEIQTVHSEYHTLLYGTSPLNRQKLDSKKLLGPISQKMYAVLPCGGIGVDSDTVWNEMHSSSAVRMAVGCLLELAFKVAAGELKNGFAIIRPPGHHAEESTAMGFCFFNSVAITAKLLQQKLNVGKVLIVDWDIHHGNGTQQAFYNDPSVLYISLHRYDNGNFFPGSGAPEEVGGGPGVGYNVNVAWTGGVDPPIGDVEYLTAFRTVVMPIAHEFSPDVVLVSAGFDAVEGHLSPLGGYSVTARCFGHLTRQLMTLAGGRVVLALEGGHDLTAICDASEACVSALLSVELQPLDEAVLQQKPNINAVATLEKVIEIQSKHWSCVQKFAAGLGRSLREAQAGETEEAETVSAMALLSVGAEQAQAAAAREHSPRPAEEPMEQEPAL
T3 sequence (P56524 627-1084 limits assumed): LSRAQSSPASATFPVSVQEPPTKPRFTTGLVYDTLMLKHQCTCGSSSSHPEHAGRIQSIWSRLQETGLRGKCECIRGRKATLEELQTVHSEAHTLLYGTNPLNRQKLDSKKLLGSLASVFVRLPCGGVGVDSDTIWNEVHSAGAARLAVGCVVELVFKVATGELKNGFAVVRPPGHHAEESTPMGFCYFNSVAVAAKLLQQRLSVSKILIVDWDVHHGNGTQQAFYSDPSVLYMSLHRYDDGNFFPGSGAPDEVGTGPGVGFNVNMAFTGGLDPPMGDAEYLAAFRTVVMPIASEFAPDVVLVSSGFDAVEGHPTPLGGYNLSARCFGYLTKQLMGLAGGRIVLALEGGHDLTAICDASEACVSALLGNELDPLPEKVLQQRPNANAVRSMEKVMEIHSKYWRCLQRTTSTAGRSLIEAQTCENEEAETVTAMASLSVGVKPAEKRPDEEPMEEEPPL
T1 sequence (P42336 whole entry, species assumed): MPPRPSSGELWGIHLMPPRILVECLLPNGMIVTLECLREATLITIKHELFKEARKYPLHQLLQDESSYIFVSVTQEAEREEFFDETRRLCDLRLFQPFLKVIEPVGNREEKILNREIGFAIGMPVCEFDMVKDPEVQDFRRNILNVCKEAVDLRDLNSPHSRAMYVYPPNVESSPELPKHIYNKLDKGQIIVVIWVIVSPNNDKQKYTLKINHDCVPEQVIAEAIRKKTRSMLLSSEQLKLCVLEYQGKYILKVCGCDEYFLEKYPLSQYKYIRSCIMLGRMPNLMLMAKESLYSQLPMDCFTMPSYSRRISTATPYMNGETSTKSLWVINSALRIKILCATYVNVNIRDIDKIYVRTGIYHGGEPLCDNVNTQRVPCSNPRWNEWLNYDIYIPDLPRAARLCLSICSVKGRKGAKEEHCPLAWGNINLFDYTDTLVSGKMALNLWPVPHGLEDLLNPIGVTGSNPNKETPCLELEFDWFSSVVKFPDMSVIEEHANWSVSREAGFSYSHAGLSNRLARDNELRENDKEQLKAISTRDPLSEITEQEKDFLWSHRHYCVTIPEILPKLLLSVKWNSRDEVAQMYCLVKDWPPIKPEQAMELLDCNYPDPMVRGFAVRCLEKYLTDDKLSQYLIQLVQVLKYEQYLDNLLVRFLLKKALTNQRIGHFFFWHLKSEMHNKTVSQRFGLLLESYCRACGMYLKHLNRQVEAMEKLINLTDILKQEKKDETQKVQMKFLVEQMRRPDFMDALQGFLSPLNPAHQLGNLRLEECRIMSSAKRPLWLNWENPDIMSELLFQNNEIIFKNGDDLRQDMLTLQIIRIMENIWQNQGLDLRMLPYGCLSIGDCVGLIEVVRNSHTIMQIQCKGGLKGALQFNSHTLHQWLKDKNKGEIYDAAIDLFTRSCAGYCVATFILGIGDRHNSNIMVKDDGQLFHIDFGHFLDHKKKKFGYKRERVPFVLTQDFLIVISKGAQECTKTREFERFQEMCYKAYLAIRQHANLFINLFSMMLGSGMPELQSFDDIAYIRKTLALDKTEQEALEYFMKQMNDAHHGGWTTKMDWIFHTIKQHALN
T1 sequence (P27986 whole entry partner, species assumed): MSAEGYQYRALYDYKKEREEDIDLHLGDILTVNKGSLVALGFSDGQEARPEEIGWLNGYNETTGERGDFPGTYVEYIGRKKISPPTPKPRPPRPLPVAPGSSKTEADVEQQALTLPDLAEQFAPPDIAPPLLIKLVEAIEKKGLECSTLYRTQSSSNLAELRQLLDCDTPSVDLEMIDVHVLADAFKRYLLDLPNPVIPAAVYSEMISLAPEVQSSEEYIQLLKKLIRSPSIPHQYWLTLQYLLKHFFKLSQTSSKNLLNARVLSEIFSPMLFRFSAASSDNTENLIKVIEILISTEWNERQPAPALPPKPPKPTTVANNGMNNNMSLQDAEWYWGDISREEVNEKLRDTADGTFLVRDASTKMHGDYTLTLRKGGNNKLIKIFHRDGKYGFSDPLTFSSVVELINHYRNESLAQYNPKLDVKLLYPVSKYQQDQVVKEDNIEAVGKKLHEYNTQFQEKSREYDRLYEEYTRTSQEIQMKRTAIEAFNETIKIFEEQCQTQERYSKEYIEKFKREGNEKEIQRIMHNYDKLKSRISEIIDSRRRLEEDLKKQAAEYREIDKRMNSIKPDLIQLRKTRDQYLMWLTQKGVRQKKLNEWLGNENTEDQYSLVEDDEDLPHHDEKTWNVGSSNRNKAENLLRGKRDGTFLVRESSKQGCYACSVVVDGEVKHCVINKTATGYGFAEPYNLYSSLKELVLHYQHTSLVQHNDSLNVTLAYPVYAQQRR

In the case of `COc1ccc(-c2nc(N3CCOCC3)c3nc(CN(C)c4ncc(C(=O)NO)cn4)n(C)c3n2)cn1` [CLJ-1, 2-(((2-(6-methoxypyridine-3-yl)-9-methyl-6-morpholine-9H-purine-8-yl))methyl(methyl)amino)-N-hydroxyl pyrimidine-5-formamide], the IC50 at PI3Kα (setting [5]) lay in the range of 1 to 10 µM; on PI3Kα (setting [6]) it was 1 to 10 µM; against HDAC2, 0.001 to 0.1 µM; on HDAC4, 1 to 10 µM; against HDAC5 it was 1 to 10 µM; at HDAC11, 1 to 10 µM. The results for the IC50 in [3] and in data set [4] were 0.0001 to 0.001 µM and 0.001 to 0.01 µM, respectively. Moreover, the EC50 in [1] lay in the range of 0.1 to 0.2 µM. Besides, the “Final survival condition (survived individuals/total individuals)” value in data set [2] is listed as 5/6.
In the case of `CN(Cc1nc2c(N3CCOCC3)nc(-c3cnc(N)nc3)nc2n1C)c1ncc(C(=O)NO)cn1` [CLJ-11, 2-(((2-(2-aminopyrimidine-5-yl)-9-methyl-6-morpholine-9H-purine-8-yl))methyl(methyl)amino)-N-hydroxyl pyrimidine-5-formamide], the IC50 at PI3Kα (setting [5]) is below 0.1 µM; on PI3Kα (setting [6]), 0.001 to 0.1 µM; on PI3Kα (read-out: inhibition value IC50 to the activity of PI3Kα) it was below 0.1 µM; against HDAC2, 0.001 to 0.1 µM; at HDAC4 it was 0.1 to 1 µM; on HDAC5 it was 0.1 to 1 µM. The IC50 lay in the range of 1 to 10 µM at HDAC11, 0.001 to 0.01 µM in data set [3] and 0.01 to 0.1 µM in [4]. Further, the EC50 in data set [1] lay in the range of 0.1 to 0.2 µM. Also, the “Final survival condition (survived individuals/total individuals)” value in data set [2] is reported as 4/6. Besides, the “Tumor inhibitory rate (%)” value in data set [2] is 45.1%.
In the case of `COc1ccc(-c2nc(N3CCOCC3)c3nc(CN(C)c4ncc(C(=O)NO)cn4)n(C)c3n2)cc1` [CLJ-29, 2-(((2-(4-methoxyphenyl)-9-methyl-6-morpholine-9H-purine-8-yl))methyl(methyl)amino)-N-hydroxyl pyrimidine-5-formamide], the half-maximal inhibitory concentration (IC50) was above 10 µM on PI3Kα (setting [5]); above 10 µM at PI3Kα (setting [6]); 0.001 to 0.1 µM on HDAC2; 1 to 10 µM against HDAC4; 1 to 10 µM against HDAC5; 1 to 10 µM against HDAC11. For the same compound, the IC50 in [3] and in data set [4] was 0.0001 to 0.001 µM in each case. This compound also returned a half-maximal effective concentration (EC50) in [1] below 0.1 µM. The “Final survival condition (survived individuals/total individuals)” value in data set [2] is 4/6.
On to `CN(Cc1nc2c(N3CCOCC3)nc(-c3ccc(N)cc3)nc2n1C)c1ncc(C(=O)NO)cn1` [CLJ-44], for which the 50% inhibitory concentration (IC50) fell in the range of 1 to 10 µM on PI3Kα (setting [5]); 1 to 10 µM on PI3Kα (setting [6]); 0.001 to 0.1 µM on HDAC2; 1 to 10 µM against HDAC4; 0.1 to 1 µM on HDAC5; 1 to 10 µM against HDAC11. Besides, the half-maximal inhibitory concentration (IC50) in data set [3] and in data set [4] was 0.001 to 0.01 µM throughout. The compound also came in with a concentration giving a half-maximal response (EC50) in data set [1] of 0.1 to 0.2 µM. In addition, the “Final survival condition (survived individuals/total individuals)” value in [2] is 6/6.
Take `Cc1[nH]c2ccccc2c1CCNCc1ccc(/C=C/C(=O)NO)cc1` [LBH589, panobinostat, reference compound]: the concentration for half-maximal inhibition (IC50) on PI3Kα (setting [6]) was above 10 µM; in data set [3] it was 0.001 to 0.01 µM; in data set [4], 0.001 to 0.01 µM. The EC50 in data set [1] is 0.1 to 0.2 µM.
